# Test system: UO-31
# Assay: Growth inhibition of human UO31 cells assessed as cell growth at 1 uM incubated for 48 hrs by sulforhodamine B assay relative to control
# Type: functional
# Conditions: UO-31, 48 h, read-out: Activity
row,Structure (SMILES),growth at 1 µM [%]
1,O=C(Nc1cccc(-n2cc(-c3ccncc3)c(-c3cc(O)cc(Cl)c3)n2)c1)Nc1ccc(Cl)c(Cl)c1,78

# Test system: A549
# Assay: Growth inhibition of human A549/ATCC cells assessed as cell growth at 1 uM incubated for 48 hrs by sulforhodamine B assay relative to control
# Type: functional
# Conditions: A549, 48 h, read-out: Activity
row,Structure (SMILES),growth at 1 µM [%]
1,O=C(Nc1cccc(-n2cc(-c3ccncc3)c(-c3cc(O)cc(Cl)c3)n2)c1)Nc1ccc(Cl)c(Cl)c1,75

# Test system: IGROV-1
# Assay: Growth inhibition of human IGROV1 cells assessed as cell growth at 0.01 uM incubated for 48 hrs by sulforhodamine B assay relative to control
# Type: functional
# Conditions: IGROV-1, 48 h, read-out: Activity
row,Structure (SMILES),growth at 0.01 µM [%]
1,O=C(Nc1cccc(-n2cc(-c3ccncc3)c(-c3cc(O)cc(Cl)c3)n2)c1)Nc1ccc(Cl)c(Cl)c1,98

# Test system: SK-MEL-2
# Assay: Growth inhibition of human SK-MEL-2 cells assessed as cell growth at 1 uM incubated for 48 hrs by sulforhodamine B assay relative to control
# Type: functional
# Conditions: SK-MEL-2, 48 h, read-out: Activity
row,Structure (SMILES),growth at 1 µM [%]
1,O=C(Nc1cccc(-n2cc(-c3ccncc3)c(-c3cc(O)cc(Cl)c3)n2)c1)Nc1ccc(Cl)c(Cl)c1,56

# Test system: CAKI-1
# Assay: Growth inhibition of human Caki1 cells assessed as cell growth at 1 uM incubated for 48 hrs by sulforhodamine B assay relative to control
# Type: functional
# Conditions: CAKI-1, 48 h, read-out: Activity
row,Structure (SMILES),growth at 1 µM [%]
1,O=C(Nc1cccc(-n2cc(-c3ccncc3)c(-c3cc(O)cc(Cl)c3)n2)c1)Nc1ccc(Cl)c(Cl)c1,54

# Test system: HCT-116
# Assay: Growth inhibition of human HCT116 cells assessed as cell growth at 0.01 uM incubated for 48 hrs by sulforhodamine B assay relative to control
# Type: functional
# Conditions: HCT-116, 48 h, read-out: Activity
row,Structure (SMILES),growth at 0.01 µM [%]
1,O=C(Nc1cccc(-n2cc(-c3ccncc3)c(-c3cc(O)cc(Cl)c3)n2)c1)Nc1ccc(Cl)c(Cl)c1,101

# Test system: NCI-H460
# Assay: Growth inhibition of human NCI-H460 cells assessed as cell growth at 1 uM incubated for 48 hrs by sulforhodamine B assay relative to control
# Type: functional
# Conditions: NCI-H460, 48 h, read-out: Activity
row,Structure (SMILES),growth at 1 µM [%]
1,O=C(Nc1cccc(-n2cc(-c3ccncc3)c(-c3cc(O)cc(Cl)c3)n2)c1)Nc1ccc(Cl)c(Cl)c1,58

# Test system: NCI/ADR-RES
# Assay: Growth inhibition of human NCI/ADR-RES cells assessed as cell growth at 0.01 uM incubated for 48 hrs by sulforhodamine B assay relative to control
# Type: functional
# Conditions: read-out: Activity
row,Structure (SMILES),growth at 0.01 µM [%]
1,O=C(Nc1cccc(-n2cc(-c3ccncc3)c(-c3cc(O)cc(Cl)c3)n2)c1)Nc1ccc(Cl)c(Cl)c1,109

# Test system: PC-3
# Assay: Growth inhibition of human PC3 cells assessed as cell growth at 1 uM incubated for 48 hrs by sulforhodamine B assay relative to control
# Type: functional
# Conditions: PC-3, 48 h, read-out: Activity
row,Structure (SMILES),growth at 1 µM [%]
1,O=C(Nc1cccc(-n2cc(-c3ccncc3)c(-c3cc(O)cc(Cl)c3)n2)c1)Nc1ccc(Cl)c(Cl)c1,72

# Test system: SK-OV-3
# Assay: Growth inhibition of human SKOV3 cells assessed as cell growth at 100 uM incubated for 48 hrs by sulforhodamine B assay relative to control
# Type: functional
# Conditions: SK-OV-3, 48 h, read-out: Activity
row,Structure (SMILES),growth at 100 µM [%]
1,O=C(Nc1cccc(-n2cc(-c3ccncc3)c(-c3cc(O)cc(Cl)c3)n2)c1)Nc1ccc(Cl)c(Cl)c1,-22

# Test system: UACC-257
# Assay: Growth inhibition of human UACC257 cells assessed as cell growth at 0.01 uM incubated for 48 hrs by sulforhodamine B assay relative to control
# Type: functional
# Conditions: UACC-257, 48 h, read-out: Activity
row,Structure (SMILES),growth at 0.01 µM [%]
1,O=C(Nc1cccc(-n2cc(-c3ccncc3)c(-c3cc(O)cc(Cl)c3)n2)c1)Nc1ccc(Cl)c(Cl)c1,96

# Test system: MDA-MB-435
# Assay: Growth inhibition of human MDA-MB-435 cells incubated for 48 hrs by sulforhodamine B assay
# Type: functional, cell-based
# Conditions: MDA-MB-435, 48 h, read-out: GI50
row,Structure (SMILES),GI50 [µM]
1,O=C(Nc1cccc(-n2cc(-c3ccncc3)c(-c3cc(O)cc(Cl)c3)n2)c1)Nc1ccc(Cl)c(Cl)c1,1.5

# Same assay, conditions: MDA-MB-435, 48 h, read-out: TGI
row,Structure (SMILES),TGI [µM]
1,O=C(Nc1cccc(-n2cc(-c3ccncc3)c(-c3cc(O)cc(Cl)c3)n2)c1)Nc1ccc(Cl)c(Cl)c1,35.8

# Same assay, conditions: MDA-MB-435, 48 h, read-out: pGI50 (converted)
row,Structure (SMILES),GI50 [µM]
1,O=C(Nc1cccc(-n2cc(-c3ccncc3)c(-c3cc(O)cc(Cl)c3)n2)c1)Nc1ccc(Cl)c(Cl)c1,1.58

# Same assay, conditions: MDA-MB-435, 48 h, read-out: pTGI (converted)
row,Structure (SMILES),TGI [µM]
1,O=C(Nc1cccc(-n2cc(-c3ccncc3)c(-c3cc(O)cc(Cl)c3)n2)c1)Nc1ccc(Cl)c(Cl)c1,3.55

# Test system: NCI/ADR-RES
# Assay: Growth inhibition of human NCI/ADR-RES cells assessed as cell growth at 100 uM incubated for 48 hrs by sulforhodamine B assay relative to control
# Type: functional
# Conditions: read-out: Activity
row,Structure (SMILES),growth at 100 µM [%]
1,O=C(Nc1cccc(-n2cc(-c3ccncc3)c(-c3cc(O)cc(Cl)c3)n2)c1)Nc1ccc(Cl)c(Cl)c1,2

# Test system: SK-MEL-28
# Assay: Growth inhibition of human SK-MEL-28 cells assessed as cell growth at 1 uM incubated for 48 hrs by sulforhodamine B assay relative to control
# Type: functional
# Conditions: SK-MEL-28, 48 h, read-out: Activity
row,Structure (SMILES),growth at 1 µM [%]
1,O=C(Nc1cccc(-n2cc(-c3ccncc3)c(-c3cc(O)cc(Cl)c3)n2)c1)Nc1ccc(Cl)c(Cl)c1,90

# Test system: SN12C
# Assay: Growth inhibition of human SN12C cells assessed as cell growth at 100 uM incubated for 48 hrs by sulforhodamine B assay relative to control
# Type: functional
# Conditions: read-out: Activity
row,Structure (SMILES),growth at 100 µM [%]
1,O=C(Nc1cccc(-n2cc(-c3ccncc3)c(-c3cc(O)cc(Cl)c3)n2)c1)Nc1ccc(Cl)c(Cl)c1,-15

# Test system: SW-620
# Assay: Growth inhibition of human SW620 cells assessed as cell growth at 0.01 uM incubated for 48 hrs by sulforhodamine B assay relative to control
# Type: functional
# Conditions: SW-620, 48 h, read-out: Activity
row,Structure (SMILES),growth at 0.01 µM [%]
1,O=C(Nc1cccc(-n2cc(-c3ccncc3)c(-c3cc(O)cc(Cl)c3)n2)c1)Nc1ccc(Cl)c(Cl)c1,96

# Test system: A498
# Assay: Growth inhibition of human A498 cells assessed as cell growth at 100 uM incubated for 48 hrs by sulforhodamine B assay relative to control
# Type: functional
# Conditions: A498, 48 h, read-out: Activity
row,Structure (SMILES),growth at 100 µM [%]
1,O=C(Nc1cccc(-n2cc(-c3ccncc3)c(-c3cc(O)cc(Cl)c3)n2)c1)Nc1ccc(Cl)c(Cl)c1,-79

# Test system: CCRF-CEM
# Assay: Growth inhibition of human CCRF-CEM cells assessed as cell growth at 0.1 uM incubated for 48 hrs by sulforhodamine B assay relative to control
# Type: functional
# Conditions: read-out: Activity
row,Structure (SMILES),growth at 0.1 µM [%]
1,O=C(Nc1cccc(-n2cc(-c3ccncc3)c(-c3cc(O)cc(Cl)c3)n2)c1)Nc1ccc(Cl)c(Cl)c1,95

# Test system: LOX IMVI
# Assay: Growth inhibition of human LOXIMVI cells assessed as cell growth at 1 uM incubated for 48 hrs by sulforhodamine B assay relative to control
# Type: functional
# Conditions: read-out: Activity
row,Structure (SMILES),growth at 1 µM [%]
1,O=C(Nc1cccc(-n2cc(-c3ccncc3)c(-c3cc(O)cc(Cl)c3)n2)c1)Nc1ccc(Cl)c(Cl)c1,83

# Test system: A498
# Assay: Growth inhibition of human A498 cells assessed as cell growth at 0.1 uM incubated for 48 hrs by sulforhodamine B assay relative to control
# Type: functional
# Conditions: A498, 48 h, read-out: Activity
row,Structure (SMILES),growth at 0.1 µM [%]
1,O=C(Nc1cccc(-n2cc(-c3ccncc3)c(-c3cc(O)cc(Cl)c3)n2)c1)Nc1ccc(Cl)c(Cl)c1,94

# — ChEMBL document CHEMBL4308841, “Synthesis, in vitro antiproliferative activity, and kinase inhibitory effects of pyrazole-containing diarylureas and diarylamides” (Eur J Med Chem, 2018)
